Results: PubChem BioAssay (NCI)
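GI50 marks 50% less growth. At the TGI there is no net growth.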

Key:
Assay in all cases: NCI anticancer screen, dose series, 384-well format
786-0 renal = test system: 786-0 renal
A498 renal = test system: A498 renal
A549 NSCLC = test system: A549 NSCLC
ACHN renal = test system: ACHN renal
BT-549 breast = test system: BT-549 breast
CAKI-1 renal = test system: CAKI-1 renal
CCRF-CEM leukemia = test system: CCRF-CEM leukemia
COLO 205 colon = test system: COLO 205 colon
DU-145 prostate = test system: DU-145 prostate
EKVX NSCLC = test system: EKVX NSCLC
HCC-2998 colon = test system: HCC-2998 colon
HCT-116 colon = test system: HCT-116 colon
HCT-15 colon = test system: HCT-15 colon
HL-60(TB) leukemia = test system: HL-60(TB) leukemia
HOP-62 NSCLC = test system: HOP-62 NSCLC
HOP-92 NSCLC = test system: HOP-92 NSCLC
HS 578T breast = test system: HS 578T breast
HT29 colon = test system: HT29 colon
IGROV1 ovarian = test system: IGROV1 ovarian
K-562 leukemia = test system: K-562 leukemia
KM12 colon = test system: KM12 colon
LOX IMVI melanoma = test system: LOX IMVI melanoma
M14 melanoma = test system: M14 melanoma
MALME-3M melanoma = test system: MALME-3M melanoma
MCF7 breast = test system: MCF7 breast
MDA-MB-231 breast = test system: MDA-MB-231 breast
MDA-MB-435 melanoma = test system: MDA-MB-435 melanoma
MDA-MB-468 breast = test system: MDA-MB-468 breast
MOLT-4 leukemia = test system: MOLT-4 leukemia
NCI-H226 lung = test system: NCI-H226 lung
NCI-H23 lung = test system: NCI-H23 lung
NCI-H322M lung = test system: NCI-H322M lung
NCI-H460 NSCLC = test system: NCI-H460 NSCLC
NCI-H522 lung = test system: NCI-H522 lung
NCI/ADR-RES ovarian = test system: NCI/ADR-RES ovarian
OVCAR-3 ovarian = test system: OVCAR-3 ovarian
OVCAR-4 ovarian = test system: OVCAR-4 ovarian
OVCAR-8 ovarian = test system: OVCAR-8 ovarian
PC-3 prostate = test system: PC-3 prostate
RPMI-8226 leukemia = test system: RPMI-8226 leukemia
RXF 393 renal = test system: RXF 393 renal
SF-268 CNS = test system: SF-268 CNS
SF-295 CNS = test system: SF-295 CNS
SF-539 CNS = test system: SF-539 CNS
SK-MEL-28 melanoma = test system: SK-MEL-28 melanoma
SK-MEL-5 melanoma = test system: SK-MEL-5 melanoma
SK-OV-3 ovarian = test system: SK-OV-3 ovarian
SN12C renal = test system: SN12C renal
SNB-19 CNS = test system: SNB-19 CNS
SNB-75 CNS = test system: SNB-75 CNS
SW-620 colon = test system: SW-620 colon
T-47D breast = test system: T-47D breast
TK-10 renal = test system: TK-10 renal
U251 glioblastoma = test system: U251 glioblastoma
UACC-257 melanoma = test system: UACC-257 melanoma
UACC-62 melanoma = test system: UACC-62 melanoma
UO-31 renal = test system: UO-31 renal

For `Cc1ccc2c(=O)c3cccc(CC(=O)O)c3oc2c1C`, the GI50 ([…]-0 renal) was > 100 µM, the TGI (786-0 renal) was > 100 µM and the GI50 (A498 renal) was > 100 µM. The TGI (A498 renal) was > 100 µM, the GI50 (A549 NSCLC) was > 100 µM and the TGI (A549 NSCLC) was > 100 µM. The GI50 (ACHN renal) was > 100 µM, the TGI (ACHN renal) was > 100 µM and the GI50 (BT-549 breast) was > 100 µM. The TGI (BT-549 breast) was > 100 µM, the GI50 (CAKI-1 renal) was > 100 µM and the TGI (CAKI-1 renal) was > 100 µM. For the same compound, the GI50 (CCRF-CEM leukemia) was > 100 µM, the TGI (CCRF-CEM leukemia) was > 100 µM and the GI50 (COLO 205 colon) was > 100 µM. For the same compound, the TGI (COLO 205 colon) was > 100 µM, the GI50 (DU-145 prostate) was > 100 µM and the TGI (DU-145 prostate) was > 100 µM. For the same compound, the GI50 (EKVX NSCLC) was > 100 µM, the TGI (EKVX NSCLC) was > 100 µM and the GI50 (HCC-2998 colon) was > 100 µM. For the same compound, the TGI (HCC-2998 colon) was > 100 µM, the GI50 (HCT-116 colon) was > 100 µM and the TGI (HCT-116 colon) was > 100 µM. For the same compound, the GI50 (HCT-15 colon) was > 100 µM, the TGI (HCT-15 colon) was > 100 µM and the GI50 (HL-60(TB) leukemia) was > 100 µM. For the same compound, the TGI (HL-60(TB) leukemia) was > 100 µM, the GI50 (HOP-62 NSCLC) was > 100 µM and the TGI (HOP-62 NSCLC) was > 100 µM. The GI50 (HOP-92 NSCLC) was > 100 µM, the TGI (HOP-92 NSCLC) was > 100 µM and the GI50 (HS 578T breast) was > 100 µM. The TGI (HS 578T breast) was > 100 µM, the GI50 (HT29 colon) was > 100 µM and the TGI (HT29 colon) was > 100 µM. For the same compound, the GI50 (IGROV1 ovarian) was > 100 µM, the TGI (IGROV1 ovarian) was > 100 µM and the GI50 (K-562 leukemia) was > 100 µM. The TGI (K-562 leukemia) was > 100 µM, the GI50 (KM12 colon) was > 100 µM and the TGI (KM12 colon) was > 100 µM. The GI50 (LOX IMVI melanoma) was > 100 µM, the TGI (LOX IMVI melanoma) was > 100 µM and the GI50 (M14 melanoma) was > 100 µM. The TGI (M14 melanoma) was > 100 µM, the GI50 (MALME-3M melanoma) was > 100 µM and the TGI (MALME-3M melanoma) was > 100 µM. The GI50 (MCF7 breast) was > 100 µM, the TGI (MCF7 breast) was > 100 µM and the GI50 (MDA-MB-231 breast) was > 100 µM. For the same compound, the TGI (MDA-MB-231 breast) was > 100 µM, the GI50 (MDA-MB-435 melanoma) was > 100 µM and the TGI (MDA-MB-435 melanoma) was > 100 µM. For the same compound, the GI50 (MDA-MB-468 breast) was > 100 µM, the TGI (MDA-MB-468 breast) was > 100 µM and the GI50 (MOLT-4 leukemia) was > 100 µM. For the same compound, the TGI (MOLT-4 leukemia) was > 100 µM, the GI50 (NCI-H226 lung) was > 100 µM and the TGI (NCI-H226 lung) was > 100 µM. The GI50 (NCI-H23 lung) was > 100 µM, the TGI (NCI-H23 lung) was > 100 µM and the GI50 (NCI-H322M lung) was > 100 µM. For the same compound, the TGI (NCI-H322M lung) was > 100 µM, the GI50 (NCI-H460 NSCLC) was > 100 µM and the TGI (NCI-H460 NSCLC) was > 100 µM. The GI50 (NCI-H522 lung) was > 100 µM, the TGI (NCI-H522 lung) was > 100 µM and the GI50 (NCI/ADR-RES ovarian) was > 100 µM. For the same compound, the TGI (NCI/ADR-RES ovarian) was > 100 µM, the GI50 (OVCAR-3 ovarian) was > 100 µM and the TGI (OVCAR-3 ovarian) was > 100 µM. The GI50 (OVCAR-4 ovarian) was > 100 µM, the TGI (OVCAR-4 ovarian) was > 100 µM and the GI50 (OVCAR-8 ovarian) was > 100 µM. For the same compound, the TGI (OVCAR-8 ovarian) was > 100 µM, the GI50 (PC-3 prostate) was > 100 µM and the TGI (PC-3 prostate) was > 100 µM. For the same compound, the GI50 (RPMI-8226 leukemia) was > 100 µM, the TGI (RPMI-8226 leukemia) was > 100 µM and the GI50 (RXF 393 renal) was > 100 µM. The TGI (RXF 393 renal) was > 100 µM, the GI50 (SF-268 CNS) was > 100 µM and the TGI (SF-268 CNS) was > 100 µM. The GI50 (SF-295 CNS) was > 100 µM, the TGI (SF-295 CNS) was > 100 µM and the GI50 (SF-539 CNS) was > 100 µM. For the same compound, the TGI (SF-539 CNS) was > 100 µM, the GI50 (SK-MEL-28 melanoma) was > 100 µM and the TGI (SK-MEL-28 melanoma) was > 100 µM. For the same compound, the GI50 (SK-MEL-5 melanoma) was > 100 µM, the TGI (SK-MEL-5 melanoma) was > 100 µM and the GI50 (SK-OV-3 ovarian) was > 100 µM. For the same compound, the TGI (SK-OV-3 ovarian) was > 100 µM, the GI50 (SN12C renal) was > 100 µM and the TGI (SN12C renal) was > 100 µM. For the same compound, the GI50 (SNB-19 CNS) was > 100 µM, the TGI (SNB-19 CNS) was > 100 µM and the GI50 (SNB-75 CNS) was > 100 µM. For the same compound, the TGI (SNB-75 CNS) was > 100 µM, the GI50 (SW-620 colon) was > 100 µM and the TGI (SW-620 colon) was > 100 µM. The GI50 (T-47D breast) was > 100 µM, the TGI (T-47D breast) was > 100 µM and the GI50 (TK-10 renal) was > 100 µM. For the same compound, the TGI (TK-10 renal) was > 100 µM, the GI50 (U251 glioblastoma) was > 100 µM and the TGI (U251 glioblastoma) was > 100 µM. For the same compound, the GI50 (UACC-257 melanoma) was > 100 µM, the TGI (UACC-257 melanoma) was > 100 µM and the GI50 (UACC-62 melanoma) was > 100 µM. The TGI (UACC-62 melanoma) was > 100 µM, the GI50 (UO-31 renal) was > 100 µM and the TGI (UO-31 renal) was > 100 µM.
